In brackets after ≈: the same amount, converted by molar mass.
Experiments:
Assay type in all cases: functional
[1] = system: Staphylococcus aureus; experiment: Antimicrobial activity against erythromycin-susceptible Staphylococcus aureus ATCC 25923 by broth microdilution method
[2] = system: Streptococcus pneumoniae; experiment: Antimicrobial activity against erythromycin-susceptible Streptococcus pneumoniae ATCC 49619 by broth microdilution method
[3] = system: Streptococcus pyogenes; experiment: Antimicrobial activity against erythromycin-resistant Streptococcus pyogenes R2 by broth microdilution method
[4] = system: Staphylococcus aureus; experiment: Antimicrobial activity against penicillin-susceptible Staphylococcus aureus P1 by broth microdilution method
[5] = system: Streptococcus pneumoniae; experiment: Antimicrobial activity against erythromycin-resistant Streptococcus pneumoniae AB11 expressing the erm and mef gene by broth microdilution method
[6] = system: Streptococcus pneumoniae; experiment: Antimicrobial activity against erythromycin-resistant Streptococcus pneumoniae A22072 expressing the mef gene by broth microdilution method
[7] = system: Streptococcus pyogenes; experiment: Antimicrobial activity against erythromycin-susceptible Streptococcus pyogenes S2 by broth microdilution method
[8] = system: Streptococcus pneumoniae; experiment: Antimicrobial activity against erythromycin-resistant Streptococcus pneumoniae B1 expressing the erm gene by broth microdilution method

| Compound | MIC [1] [µg/mL] | MIC [2] [µg/mL] | MIC [3] [µg/mL] | MIC [4] [µg/mL] | MIC [5] [µg/mL] | MIC [6] [µg/mL] | MIC [7] [µg/mL] | MIC [8] [µg/mL] |
| --- | --- | --- | --- | --- | --- | --- | --- | --- |
| CC[C@H]1OC(=O)[C@H](C)[C@@H](O[C@H]2C[C@@](C)(OC)[C@@H](OC(=O)NCc3ccccc3)[C@H](C)O2)[C@H](C)[C@@H](O[C@@H]2O[C@H](C)C[C@H](N(C)C)[C@H]2O)[C@](C)(OC)C[C@@H](C)C(=O)[C@H](C)[C@@H](O)[C@]1(C)O | 0.25 (≈ 0.284 µM) | 0.25 (≈ 0.284 µM) | 16 (≈ 18.2 µM) | 1 (≈ 1.13 µM) | 8 (≈ 9.08 µM) | 0.25 (≈ 0.284 µM) | 0.12 (≈ 0.136 µM) | 4 (≈ 4.54 µM) |
| CC[C@H]1OC(=O)[C@H](C)[C@@H](O[C@H]2C[C@@](C)(OC)[C@@H](OC(=O)NCc3ccc(F)cc3)[C@H](C)O2)[C@H](C)[C@@H](O[C@@H]2O[C@H](C)C[C@H](N(C)C)[C@H]2O)[C@](C)(OC)C[C@@H](C)C(=O)[C@H](C)[C@@H](O)[C@]1(C)O | 0.12 (≈ 0.133 µM) | 0.06 (≈ 0.0667 µM) | 0.5 (≈ 0.556 µM) | 2 (≈ 2.22 µM) | 8 (≈ 8.9 µM) | 0.5 (≈ 0.556 µM) | 0.03 (≈ 0.0334 µM) | 4 (≈ 4.45 µM) |
| CC[C@H]1OC(=O)[C@H](C)[C@@H](O[C@H]2C[C@@](C)(OC)[C@@H](OC(=O)NCc3ccc(OC)cc3)[C@H](C)O2)[C@H](C)[C@@H](O[C@@H]2O[C@H](C)C[C@H](N(C)C)[C@H]2O)[C@](C)(OC)C[C@@H](C)C(=O)[C@H](C)[C@@H](O)[C@]1(C)O | 0.12 (≈ 0.132 µM) | 0.03 (≈ 0.0329 µM) | 0.12 (≈ 0.132 µM) | 8 (≈ 8.78 µM) | 32 (≈ 35.1 µM) | 0.25 (≈ 0.274 µM) | 0.03 (≈ 0.0329 µM) | 16 (≈ 17.6 µM) |
| CC[C@H]1OC(=O)[C@H](C)[C@@H](O[C@H]2C[C@@](C)(OC)[C@@H](OC(=O)NCCc3ccc(O)cc3)[C@H](C)O2)[C@H](C)[C@@H](O[C@@H]2O[C@H](C)C[C@H](N(C)C)[C@H]2O)[C@](C)(OC)C[C@@H](C)C(=O)[C@H](C)[C@@H](O)[C@]1(C)O | 0.25 (≈ 0.274 µM) | 0.12 (≈ 0.132 µM) | 0.25 (≈ 0.274 µM) | 16 (≈ 17.6 µM) | 128 (≈ 140 µM) | 4 (≈ 4.39 µM) | 0.03 (≈ 0.0329 µM) | 128 (≈ 140 µM) |
| CC[C@H]1OC(=O)[C@H](C)[C@@H](O[C@H]2C[C@@](C)(OC)[C@@H](OC(=O)NCCc3ccccc3Cl)[C@H](C)O2)[C@H](C)[C@@H](O[C@@H]2O[C@H](C)C[C@H](N(C)C)[C@H]2O)[C@](C)(OC)C[C@@H](C)C(=O)[C@H](C)[C@@H](O)[C@]1(C)O | 0.12 (≈ 0.129 µM) | 0.06 (≈ 0.0645 µM) | 0.5 (≈ 0.538 µM) | 0.25 (≈ 0.269 µM) | 32 (≈ 34.4 µM) | 0.5 (≈ 0.538 µM) | 0.03 (≈ 0.0323 µM) | 16 (≈ 17.2 µM) |
| CC[C@H]1OC(=O)[C@H](C)[C@@H](O[C@H]2C[C@@](C)(OC)[C@@H](OC(=O)NCCc3ccccc3)[C@H](C)O2)[C@H](C)[C@@H](O[C@@H]2O[C@H](C)C[C@H](N(C)C)[C@H]2O)[C@](C)(OC)C[C@@H](C)C(=O)[C@H](C)[C@@H](O)[C@]1(C)O | 0.12 (≈ 0.134 µM) | 0.03 (≈ 0.0335 µM) | 0.25 (≈ 0.279 µM) | 0.06 (≈ 0.067 µM) | 64 (≈ 71.5 µM) | 1 (≈ 1.12 µM) | 0.03 (≈ 0.0335 µM) | 16 (≈ 17.9 µM) |
| CC[C@H]1OC(=O)[C@H](C)[C@@H](O[C@H]2C[C@@](C)(OC)[C@@H](OC(=O)NCCc3ccc4c(c3)OCO4)[C@H](C)O2)[C@H](C)[C@@H](O[C@@H]2O[C@H](C)C[C@H](N(C)C)[C@H]2O)[C@](C)(OC)C[C@@H](C)C(=O)[C@H](C)[C@@H](O)[C@]1(C)O | 0.25 (≈ 0.266 µM) | 0.06 (≈ 0.0639 µM) | 0.5 (≈ 0.532 µM) | 0.5 (≈ 0.532 µM) | 64 (≈ 68.1 µM) | 0.25 (≈ 0.266 µM) | 0.5 (≈ 0.532 µM) | 32 (≈ 34.1 µM) |
| CC[C@H]1OC(=O)[C@H](C)[C@@H](O[C@H]2C[C@@](C)(OC)[C@@H](OC(=O)NCCCC(=O)NCc3ccccc3)[C@H](C)O2)[C@H](C)[C@@H](O[C@@H]2O[C@H](C)C[C@H](N(C)C)[C@H]2O)[C@](C)(OC)C[C@@H](C)C(=O)[C@H](C)[C@@H](O)[C@]1(C)O | 0.12 (≈ 0.124 µM) | 0.03 (≈ 0.031 µM) | 64 (≈ 66.2 µM) | 4 (≈ 4.14 µM) | 0.25 (≈ 0.259 µM) | 0.5 (≈ 0.517 µM) | 0.25 (≈ 0.259 µM) | 2 (≈ 2.07 µM) |
| CC[C@H]1OC(=O)[C@H](C)[C@@H](O[C@H]2C[C@@](C)(OC)[C@@H](OC(=O)NCCCC(=O)NCc3ccc(F)cc3)[C@H](C)O2)[C@H](C)[C@@H](O[C@@H]2O[C@H](C)C[C@H](N(C)C)[C@H]2O)[C@](C)(OC)C[C@@H](C)C(=O)[C@H](C)[C@@H](O)[C@]1(C)O | 0.12 (≈ 0.122 µM) | 0.03 (≈ 0.0305 µM) | 16 (≈ 16.3 µM) | 1 (≈ 1.02 µM) | 2 (≈ 2.03 µM) | 0.25 (≈ 0.254 µM) | 0.25 (≈ 0.254 µM) | 1 (≈ 1.02 µM) |
| CC[C@H]1OC(=O)[C@H](C)[C@@H](O[C@H]2C[C@@](C)(OC)[C@@H](OC(=O)NCCCC(=O)NCc3ccc(OC)cc3)[C@H](C)O2)[C@H](C)[C@@H](O[C@@H]2O[C@H](C)C[C@H](N(C)C)[C@H]2O)[C@](C)(OC)C[C@@H](C)C(=O)[C@H](C)[C@@H](O)[C@]1(C)O | 0.12 (≈ 0.12 µM) | 0.03 (≈ 0.0301 µM) | 0.5 (≈ 0.502 µM) | 8 (≈ 8.03 µM) | 1 (≈ 1 µM) | 0.25 (≈ 0.251 µM) | 0.03 (≈ 0.0301 µM) | 0.06 (≈ 0.0602 µM) |
